PMC4472782, “Antibacterial Characterization of Novel Synthetic Thiazole Compounds against Methicillin-Resistant Staphylococcus pseudintermedius” (PLoS ONE, 2015)
In brackets after ≈: the same amount, converted by molar mass. Like-named read-outs stand apart in the source and are kept apart here.

Experiments:
[1] = system: methicillin-sensitive Staphylococcus pseudintermedius; experiment: MIC by broth microdilution against MSSP clinical isolates; type: cell-based; details: nine MSSP isolates, triplicate
Method: Fifteen isolates of S. pseudintermedius (nine MSSP and six MRSP), identified at the Indiana Animal Disease Diagnostic Laboratory from specimens collected from dogs admitted to the small animal teaching hospital at Purdue University, were included in the study. The specimens were not collected specifically for this research study but were obtained from patients admitted to the hospital for treatment. Clinical specimens were inoculated onto 5% sheep blood agar and incubated at 35°C for 18–24 hours. Standard methods including examination of colony morphology and hemolysis and biochemical tests such as tube coagulase, Voges-Proskauer (VP) and fermentation tests for maltose, trehalose and lactose, were used in addition to matrix-assisted laser desorption ionization time of flight mass spectrometry to identify isolates. Antimicrobial susceptibility was determined by broth microdilution using the SensiTitre (Thermofisher Scientific).
Bacteria were prepared in phosphate-buffered saline (PBS) until a McFarland standard of 0.5 was achieved. The solution was subsequently diluted 1:300 in Mueller-Hinton broth (MHB) to reach a starting inoculum of 1 × 10^5 colony-forming units (CFU/mL). Bacteria were then transferred to a 96-well microtiter plate. Thiazole compounds and antibiotics were added (in triplicate) to wells in the first row of the microtiter plate and then serially diluted along the vertical axis. […] The MIC was categorized as the concentration where there was no visible growth of bacteria observed.

[2] = system: methicillin-sensitive Staphylococcus pseudintermedius; experiment: MBC determination against MSSP clinical isolates; type: cell-based; details: nine MSSP isolates
Method: (§1) The MBC was determined by plating 5 μL from wells on the 96-well microtiter plate (where the MIC was determined) where no growth was observed onto Tryptic soy agar (TSA) plates. […] The MBC was categorized as the concentration where ≥99% reduction in bacterial cell count was observed.

[3] = system: methicillin-resistant Staphylococcus pseudintermedius; experiment: MBC determination against MRSP clinical isolates; type: cell-based; details: six MRSP isolates
Method: as §1

[4] = system: MRSP SP3; experiment: Time-kill analysis against MRSP; type: cell-based, Staphylococcus pseudintermedius; details: 4 × MIC, MRSP SP3, 24 hour incubation at 37°C
Method: MRSP SP3 cells in late logarithmic growth phase were diluted to ~1 × 10^6 CFU/mL and exposed to concentrations equivalent to 4 × MIC (in triplicate) of thiazole compounds 1–6 and rifampicin in MHB. Samples (20 μL) were collected after 0, 2, 4, 6, 8, 10, 12, and 24 hours of incubation at 37°C and subsequently serially diluted in PBS. Bacteria were then transferred to TSA plates and incubated at 37°C for 20–24 hours before viable CFU/mL values were determined.

[5] = system: MRSP (SP3); experiment: Multi-step resistance selection; type: cell-based, Staphylococcus pseudintermedius
Method: To assess the ability of MRSP to develop resistance to the thiazole compounds, a multi-step resistance selection experiment was performed, as described elsewhere. The broth microdilution method for MIC determination against a clinical isolate of MRSP (SP3) was repeated for ten passages over a period of ten days. The initial inoculum was prepared to a McFarland standard of 0.5. The solution was subsequently diluted 1:300 in MHB to reach a starting inoculum of 1 × 10^5 CFU/mL. For each subsequent passage, the inoculum for the MIC determination was adjusted to a final density of approximately 5 × 10^5 CFU/mL using the contents of a well containing a subinhibitory concentration of the compound (where bacterial growth was observed from the previous passage). Bacteria were then transferred to a new 96-well microtiter plate.

[6] = system: MRSP SP3; experiment: Checkerboard assay of thiazole compounds with oxacillin; type: cell-based, Staphylococcus pseudintermedius
Method: The relationship between the thiazole compounds and oxacillin was assessed via a standard checkerboard assay. Bacteria (MRSP SP3) equivalent to a McFarland standard of 0.5 were prepared in PBS. The bacteria were next diluted in MHB to achieve a starting cell density of 1 × 10^5 CFU/mL. MHB was transferred to all wells of a 96-well microtiter plate. […] Oxacillin was serially diluted along the abscissa of the microtiter plate while the thiazole compound was serially diluted along the ordinate. The plate was incubated for 22–24 hours at 37°C. The MIC of the test compound in combination with oxacillin was determined as the lowest concentration of each compound/antibiotic where no visible growth of bacteria was observed. The fractional inhibitory concentration index (ƩFIC) was calculated for each combination as described previously. A synergistic relationship was classified as an FIC index less than or equal to 0.5. […]

[7] = Kinetic (turbidimetric) solubility in PBS; type: physicochemical; details: aqueous buffer, kinetic from dmso stock; phosphate-buffered saline; highest concentration with no precipitate; read-out: Solubility Limit
Method: The absorbance of the PBS-containing plate was measured prior to addition of the test agents to determine the background absorbance. After 2 hours, the presence of precipitate was detected by turbidity (absorbance at 540 nm).

[8] = Microsomal stability analysis in dog liver microsomes; type: in vitro ADME; details: pH 7.4, dog liver microsomes
Method: The reaction contained microsomal protein in 100 mM potassium phosphate, 2 mM NADPH, 3 mM MgCl2, pH 7.4. A control was run for each test agent omitting NADPH to detect NADPH-free degradation. At 0, 10, 20, 40, and 60 minutes, an aliquot was removed from each experimental and control reaction and mixed with an equal volume of ice-cold Stop Solution (methanol containing haloperidol, diclofenac, or other internal standard). Stopped reactions were incubated at least 10 minutes at -20°C, and an additional volume of water was subsequently added. The samples were centrifuged to remove precipitated protein, and the supernatants were analyzed by LC/MS/MS to quantitate the remaining parent. Data were converted to % remaining by dividing by the time zero concentration value. Data were then fitted to a first-order decay model to determine half-life. Intrinsic clearance was calculated from the half-life and the protein concentrations, as has been described elsewhere.

[9] = system: MRSP SP3; experiment: Post-antibiotic effect against MRSP; type: cell-based, Staphylococcus pseudintermedius; details: 4 × MIC for one hour
Method: A tube containing untreated bacterial cells served as a control. Afterward, the compound/antibiotic was washed out by diluting bacteria 1:1000 in MHB. Counts of CFU for all cultures were obtained after washing. Aliquots (100 μL) of bacteria were removed every hour (for 10 hours), serially diluted in PBS, and plated on TSA plates. TSA plates were incubated for 20 hours at 37°C before CFU values were determined.

[10] = human liver microsomes; cited from earlier work

CCCCC#Cc1ccc(-c2nc(C)c(/C(C)=N/NC(=N)N)s2)cc1 [Compound 3]
MIC50 ([1]; lowest concentration inhibiting growth in 50% of isolates): 0.71 µg/mL (≈ 2.01 µM) | MIC ([1]; read-out: MIC Range): 0.18 to 0.94 µg/mL (≈ 0.509 to 2.66 µM) | MBC ([2]; Staphylococcus pseudintermedius, lowest concentration that killed 50% of isolates, read-out: MBC50): 0.71 µg/mL (≈ 2.01 µM) | MBC Range [2]: 0.18 to 1.41 µg/mL | MBC ([3]; Staphylococcus pseudintermedius, read-out: MBC50): 0.71 µg/mL (≈ 2.01 µM) | MBC Range [3]: 0.18 to 1.41 µg/mL | time required to completely eliminate MRSP [4]: within two hours | development of resistance by MRSP ([5]; MRSP SP3, ten passages, resistance = greater than four-fold increase in initial MIC): not able to develop resistance | shift in the MIC over ten passages ([5]; MRSP SP3, ten serial passages): no change | MIC ([5]; Staphylococcus pseudintermedius, read-out: initial MIC): 1.41 µg/mL (≈ 3.99 µM) | relationship with oxacillin ([6]; checkerboard assay): synergistic | ƩFIC ([6]; combination with oxacillin, ≤ 0.5 synergistic, > 0.5 to ≤ 4.0 indifference, > 4 antagonistic): 0.38 | solubility at 2 h [7]: 5.51 µg/mL (≈ 15.6 µM) | microsomal CLint ([8]; NADPH omitted, read-out: NADPH-free CLint): 6.6 µL/min/mg | half-life ([8]; NADPH omitted, read-out: NADPH-free T1/2): 5.85 h | microsomal CLint ([8]; with NADPH, duplicate, read-out: NADPH-dependent CLint): 18.7 µL/min/mg | half-life ([8]; with NADPH, duplicate, read-out: NADPH-dependent T1/2): 2.05 h | Post-antibiotic Effect [9]: >9 h | clearance rate [10]: 3.7 µL/min/mg | half-life [10]: more than 240 minutes
